The record followed here is ChEMBL document CHEMBL3797048, “Structure-activity relationship studies of new rifamycins containing l-amino acid esters as inhibitors of bacterial RNA polymerases” (Eur J Med Chem, 2016).

Converted amounts (≈) assume the structure as drawn.

Data set [1] relates to Staphylococcus aureus. The data set can be described thus: Antibacterial activity against methicillin resistant Staphylococcus aureus isolate 5 after 18 hrs by microdilution method. The format is functional. As to conditions: isolate 5, 18 h. (Broth dilution looks for growth in wells or tubes with falling amounts of substance.)
Data set [2] in a line: Solubility in water at pH 7 by UV-vis spectrophotometric analysis. The format is physicochemical.
Data set [3] has as its system Staphylococcus aureus. Kind of data set: Antibacterial activity against Staphylococcus aureus ATCC 25923 after 18 hrs by microdilution method. The conditions noted are these: ATCC 25923, 18 h. The format is functional.
Data set [4] can be described thus: Octanol-water partition coefficient, logP of the compound after 1 hr by UV-vis spectrophotometric analysis. It counts as physicochemical.
In data set [5] the test system is Escherichia coli. Kind of data set: Antibacterial activity against Escherichia coli ATCC 25922 after 18 hrs by microdilution method. The format is functional. The conditions noted are these: ATCC 25922, 18 h.
The subject of data set [6] is Staphylococcus aureus. The data set can be described thus: Antibacterial activity against methicillin resistant Staphylococcus aureus isolate 1 after 18 hrs by microdilution method. As to conditions: isolate 1, 18 h. It counts as functional.
The test system of data set [7] is Staphylococcus epidermidis. Kind of data set: Antibacterial activity against Staphylococcus epidermidis ATCC 12228 after 18 hrs by microdilution method. It counts as functional. The conditions noted are these: ATCC 12228, 18 h.
Data set [8] deals with Staphylococcus aureus. Kind of data set: Antibacterial activity against methicillin resistant Staphylococcus aureus isolate 3 after 18 hrs by microdilution method. The format is functional. As to conditions: isolate 3, 18 h.
Data set [9] relates to Staphylococcus aureus. Kind of data set: Antibacterial activity against Staphylococcus aureus ATCC 6538 after 18 hrs by microdilution method. It counts as functional. As to conditions: ATCC 6538, 18 h.
Data set [10] concerns Pseudomonas aeruginosa. The data set can be described thus: Antibacterial activity against Pseudomonas aeruginosa NCTC 6749 after 18 hrs by microdilution method. It counts as functional. The conditions noted are these: NCTC 6749, 18 h.
Data set [11] has as its system Staphylococcus aureus. Kind of data set: Antibacterial activity against Staphylococcus aureus ATCC 4163 after 18 hrs by microdilution method. It counts as functional. The conditions noted are these: ATCC 4163, 18 h.
The subject of data set [12] is Staphylococcus epidermidis. The data set can be described thus: Antibacterial activity against Staphylococcus epidermidis ATCC 49134 after 18 hrs by microdilution method. It counts as functional. As to conditions: ATCC 49134, 18 h.
Data set [13] has as its system Staphylococcus aureus. The data set can be described thus: Antibacterial activity against methicillin resistant Staphylococcus aureus isolate 4 after 18 hrs by microdilution method. It counts as functional. As to conditions: isolate 4, 18 h.
For data set [14], the system named is Staphylococcus aureus. Kind of data set: Antibacterial activity against methicillin resistant Staphylococcus aureus isolate 2 after 18 hrs by microdilution method. The format is functional. The conditions noted are these: isolate 2, 18 h.

For the compound `CCOC(=O)[C@H](Cc1c[nH]c2ccccc12)NCc1c2c(O)c3c(O)c(C)c4c(c3c1O)C(=O)[C@@](C)(O/C=C/[C@H](OC)[C@@H](C)[C@@H](OC(C)=O)[C@H](C)[C@H](O)[C@H](C)[C@@H](O)[C@@H](C)/C=C/C=C(/C)C(=O)N2)O4`, the MIC in data set [1] was 0.5 µg/mL (≈ 0.531 µM); in data set [3], 1 µg/mL (≈ 1.06 µM); in [5] it was over 2 µg/mL; in data set [6], 0.5 µg/mL (≈ 0.531 µM); in data set [7], 0.063 µg/mL (≈ 0.0669 µM); in [8], 0.5 µg/mL (≈ 0.531 µM). Moreover, the MIC in data set [9] was 0.25 µg/mL (≈ 0.265 µM); in [10], over 2 µg/mL; in data set [11] it was 0.5 µg/mL (≈ 0.531 µM); in [12], 0.063 µg/mL (≈ 0.0669 µM); in data set [13], 0.5 µg/mL (≈ 0.531 µM); in data set [14], 0.5 µg/mL (≈ 0.531 µM). The concentration in solution in [2] (solubility) was 30 µg/mL (≈ 31.8 µM). In data set [4], this compound showed a logP at 1 h of 2.48.

Regarding `CCOC(=O)[C@H](Cc1ccccc1)NCc1c2c(O)c3c(O)c(C)c4c(c3c1O)C(=O)[C@@](C)(O/C=C/[C@H](OC)[C@@H](C)[C@@H](OC(C)=O)[C@H](C)[C@H](O)[C@H](C)[C@@H](O)[C@@H](C)/C=C/C=C(/C)C(=O)N2)O4`, the MIC was 0.125 µg/mL (≈ 0.138 µM) in data set [1]; 0.125 µg/mL (≈ 0.138 µM) in [3]; over 2 µg/mL in [5]; 0.063 µg/mL (≈ 0.0698 µM) in [6]; 0.063 µg/mL (≈ 0.0698 µM) in data set [7]; 0.125 µg/mL (≈ 0.138 µM) in data set [8]. The MIC in data set [9] is 0.063 µg/mL (≈ 0.0698 µM); in data set [10], over 2 µg/mL; in data set [11], 0.063 µg/mL (≈ 0.0698 µM); in data set [12], 0.125 µg/mL (≈ 0.138 µM); in [13] it was 0.125 µg/mL (≈ 0.138 µM); in [14] it was 0.125 µg/mL (≈ 0.138 µM). Besides, the solubility in [2] turned out to be 50 µg/mL (≈ 55.4 µM). This compound yielded a logP at 1 h in data set [4] of 2.63.

Take `CO[C@H]1/C=C/O[C@@]2(C)Oc3c(C)c(O)c4c(O)c(c(CN[C@@H](Cc5ccccc5)C(=O)OCc5ccccc5)c(O)c4c3C2=O)NC(=O)/C(C)=C\C=C\[C@H](C)[C@H](O)[C@@H](C)[C@@H](O)[C@@H](C)[C@H](OC(C)=O)[C@@H]1C`: the MIC in data set [1] was 1 µg/mL (≈ 1.04 µM); in [3], 2 µg/mL (≈ 2.07 µM); in data set [5], over 2 µg/mL; in data set [6], 1 µg/mL (≈ 1.04 µM); in data set [7], 0.125 µg/mL (≈ 0.13 µM); in [9], 0.5 µg/mL (≈ 0.518 µM). For the same compound, the MIC in data set [10] is over 2 µg/mL; in data set [11] it was 0.5 µg/mL (≈ 0.518 µM); in [12], 0.25 µg/mL (≈ 0.259 µM); in [13] it was 1 µg/mL (≈ 1.04 µM). The solubility in data set [2] amounted to 20 µg/mL (≈ 20.7 µM). In data set [4], this compound had a logP at 1 h of 2.75.

Take `COC(=O)[C@H](Cc1c[nH]c2ccccc12)NCc1c2c(O)c3c(O)c(C)c4c(c3c1O)C(=O)[C@@](C)(O/C=C/[C@H](OC)[C@@H](C)[C@@H](OC(C)=O)[C@H](C)[C@H](O)[C@H](C)[C@@H](O)[C@@H](C)/C=C/C=C(/C)C(=O)N2)O4`: the minimal inhibitory concentration (MIC) in [1] was 0.063 µg/mL (≈ 0.0679 µM); in data set [3] it was 0.063 µg/mL (≈ 0.0679 µM); in data set [5], over 2 µg/mL; in [6] it was 0.031 µg/mL (≈ 0.0334 µM); in [7], 0.016 µg/mL (≈ 0.0172 µM); in data set [9], 0.031 µg/mL (≈ 0.0334 µM). For the same compound, the MIC in data set [10] was over 2 µg/mL; in [11], 0.031 µg/mL (≈ 0.0334 µM); in data set [12] it was 0.016 µg/mL (≈ 0.0172 µM); in [13], 0.063 µg/mL (≈ 0.0679 µM). Besides, the concentration in solution in [2] (solubility) came to 60 µg/mL (≈ 64.7 µM). The logP at 1 h in [4] worked out at 2.22.

In the case of `CCOC(=O)[C@H](CCCNC(=N)N)NCc1c2c(O)c3c(O)c(C)c4c(c3c1O)C(=O)[C@@](C)(O/C=C/[C@H](OC)[C@@H](C)[C@@H](OC(C)=O)[C@H](C)[C@H](O)[C@H](C)[C@@H](O)[C@@H](C)/C=C/C=C(/C)C(=O)N2)O4`, the concentration in solution in [2] (solubility) was 90 µg/mL (≈ 98.7 µM). Moreover, the MIC in data set [3] was over 2 µg/mL; in data set [6], 2 µg/mL (≈ 2.19 µM); in [7], 0.25 µg/mL (≈ 0.274 µM); in data set [8] it was 2 µg/mL (≈ 2.19 µM); in [9], 1 µg/mL (≈ 1.1 µM); in [11], 1 µg/mL (≈ 1.1 µM). Besides, the MIC in data set [12] amounted to 0.5 µg/mL (≈ 0.548 µM); in [14], 2 µg/mL (≈ 2.19 µM). For the same compound, the logP at 1 h in data set [4] stood at 2.22.

Take `CO[C@H]1/C=C/O[C@@]2(C)Oc3c(C)c(O)c4c(O)c(c(CN[C@@H](Cc5c[nH]c6ccccc56)C(=O)OCc5ccccc5)c(O)c4c3C2=O)NC(=O)/C(C)=C\C=C\[C@H](C)[C@H](O)[C@@H](C)[C@@H](O)[C@@H](C)[C@H](OC(C)=O)[C@@H]1C`: the MIC in data set [1] is 1 µg/mL (≈ 0.996 µM); in [3] it was 2 µg/mL (≈ 1.99 µM); in data set [5] it was over 2 µg/mL; in data set [6] it was 1 µg/mL (≈ 0.996 µM); in data set [7], 0.25 µg/mL (≈ 0.249 µM); in data set [9], 1 µg/mL (≈ 0.996 µM). In addition, the MIC in data set [10] was over 2 µg/mL; in [11] it was 1 µg/mL (≈ 0.996 µM); in data set [12], 0.25 µg/mL (≈ 0.249 µM); in [13] it was 1 µg/mL (≈ 0.996 µM). The same compound gave a solubility in [2] of under 10 µg/mL. The compound also yielded a logP at 1 h in [4] of 2.72.

Regarding `CO[C@H]1/C=C/O[C@@]2(C)Oc3c(C)c(O)c4c(O)c(c(/C=N/N5CCN(C)CC5)c(O)c4c3C2=O)NC(=O)/C(C)=C\C=C\[C@H](C)[C@H](O)[C@@H](C)[C@@H](O)[C@@H](C)[C@H](OC(C)=O)[C@@H]1C` [RIFAMPIN], the MIC in [1] was 0.016 µg/mL (≈ 0.0194 µM); in data set [3], 0.016 µg/mL (≈ 0.0194 µM); in data set [5] it was over 2 µg/mL; in data set [6], 0.016 µg/mL (≈ 0.0194 µM); in data set [7], 0.004 µg/mL (≈ 0.00486 µM); in [8], 0.016 µg/mL (≈ 0.0194 µM). For the same compound, the MIC was 0.008 µg/mL (≈ 0.00972 µM) in [9]; over 2 µg/mL in data set [10]; 0.008 µg/mL (≈ 0.00972 µM) in [11]; 0.008 µg/mL (≈ 0.00972 µM) in data set [12]; 0.016 µg/mL (≈ 0.0194 µM) in data set [13]; 0.016 µg/mL (≈ 0.0194 µM) in [14].

Broadly, the MIC is the lowest concentration that inhibits growth of the organism. A high value points to weaker potency. A word on the solubility: it is the concentration that dissolves in the medium under given conditions. As a reminder, the logP is a log measure of how a compound divides between an organic and an aqueous phase.
